Results from US20230069804A1, “METHODS AND COMPOSITIONS FOR MODULATING SPLICING” (SkyHawk Therapeutics, Inc., priority 2019, published 2023).
Read-outs that look alike come from different tables or passages of the source.

How the values were obtained:
MDR1 = assay: MDCK-MDR1 permeability assay (BBB penetration potential); type: in vitro ADME; conditions: dog; for Papp A→B at 120 min, 5 μM / Papp B→A at 120 min, 5 μM: MDCK-MDR1, pH 7.4
Procedure: (§1) Each determination is performed in duplicate. […] Analytical conditions are outlined below.
(§2) Papp=(dCr/dt)×Vr/(A×CA) (1)

[1] = test system: MDR1-MDCK cell monolayers; assay: as above; type: in vitro ADME; conditions: 5 μM, 120 minutes; for MDCK MDRP1 Efflux Ratio: Papp (B-to-A)/Papp (A-to-B), separated enantiomers, told apart by chiral retention time; for MDCK-MDR1: % Recov A-B / MDCK-MDR1: % Recov B-A: pH 7.4
Procedure: as §1, §2

[2] = MDCK-MDR1, pH 7.4, Papp (B-to-A)/Papp (A-to-B), 5 μM, 120 minutes, separated enantiomers, told apart by chiral retention time, read-out: MDCK MDRP1 Efflux Ratio
[3] = MDCK-MDR1, pH 7.4, Papp (B-to-A)/Papp (A-to-B), read-out: MDCK-MDR1: Efflux

SMILES	efflux ratio at 120 min, 5 μM (MDR1; [2])	MDCK MDRP1 Efflux Ratio [1]	efflux ratio at 120 min, 5 μM (MDR1; [3])	Papp A→B at 120 min, 5 μM (MDR1; 5 μM, 120 minutes) [×10⁻⁶ cm/s]	Papp B→A at 120 min, 5 μM (MDR1; 5 μM, 120 minutes) [×10⁻⁶ cm/s]	MDCK-MDR1: % Recov A-B [1] [%]	MDCK-MDR1: % Recov B-A [1] [%]
CN(c1nnc(-c2cc(F)c(-c3cn[nH]c3)cc2O)s1)[C@H]1C[C@@H]2CC[C@H]([C@H]1F)N2C (racemic) [24A/24B, 4-fluoro-2-(5-{[(1S,2S,3R,5R)-2-fluoro-8-methyl-8-azabicyclo[3.2.1]octan-3-yl](methyl)amino}-1,3,4-thiadiazol-2-yl)-5-(1H-pyrazol-4-yl)phenol and 4-fluoro-2-(5-{[(1R,2R,3S,5S)-2-fluoro-8-methyl-8-azabicyclo[3.2.1]octan-3-yl](methyl)amino}-1,3,4-thiadiazol-2-yl)-5-(1H-pyrazol-4-yl)phenol]	6	7	–	–	–	–	–
CN(c1nnc(-c2cc(F)c(-c3cn[nH]c3)cc2O)s1)[C@H]1C[C@@H]2CC[C@H]([C@H]1F)N2C (single isomer, unassigned) [Compound E-24A]	–	–	6	5.07	30.8	57	74
CN(c1nnc(-c2cc(F)c(-c3cn[nH]c3)cc2O)s1)[C@@H]1C[C@H]2CC[C@@H]([C@@H]1F)N2C (single isomer, unassigned) [Compound E-24B]	–	–	7	4.16	29.4	59	82
CN(c1nnc(-c2ccc(-c3cn[nH]c3)cc2O)s1)[C@H]1C[C@@H]2CC[C@@H](N2)[C@H]1F (single isomer, unassigned) [Compound E-7A]	–	–	12	5.22	60.6	99	102
CN(c1nnc(-c2cc(F)c(-c3cnn(C)c3)cc2O)s1)[C@H]1C[C@@H]2CC[C@@H](N2)[C@H]1F (racemic) [9A/9B, 4-fluoro-2-(5-{[(1S,2S,3R,5R)-2-fluoro-8-azabicyclo[3.2.1]octan-3-yl](methyl)amino}-1,3,4-thiadiazol-2-yl)-5-(1-methyl-1H-pyrazol-4-yl)phenol and 4-fluoro-2-(5-{[(1R,2R,3S,5S)-2-fluoro-8-azabicyclo[3.2.1]octan-3-yl](methyl)amino}-1,3,4-thiadiazol-2-yl)-5-(1-methyl-1H-pyrazol-4-yl)phenol]	5	6	–	–	–	–	–
CN(c1nnc(-c2ccc(-c3cc(=O)n(C)cn3)cc2O)s1)[C@@H]1C[C@H]2CC[C@H](N2)[C@@H]1F (racemic) [8A/8B, 6-[4-(5-{[(1S,2S,3R)-2-fluoro-8-azabicyclo[3.2.1]octan-3-yl](methyl)amino}-1,3,4-thiadiazol-2-yl)-3-hydroxyphenyl]-3-methyl-3,4-dihydropyrimidin-4-one and 6-[4-(5-{[(2R,3S,5S)-2-fluoro-8-azabicyclo[3.2.1]octan-3-yl](methyl)amino}-1,3,4-thiadiazol-2-yl)-3-hydroxyphenyl]-3-methyl-3,4-dihydropyrimidin-4-one]	21	31	–	–	–	–	–
CN(c1nnc(-c2ccc(-c3cn[nH]c3)cc2O)s1)[C@H]1C[C@@H]2CC[C@H]([C@H]1F)N2C (racemic) [23A/23B, 2-(5-{[(1S,2S,3R,5R)-2-fluoro-8-methyl-8-azabicyclo[3.2.1]octan-3-yl](methyl)amino}-1,3,4-thiadiazol-2-yl)-5-(1H-pyrazol-4-yl)phenol and 2-(5-{[(1R,2R,3S,5S)-2-fluoro-8-methyl-8-azabicyclo[3.2.1]octan-3-yl](methyl)amino}-1,3,4-thiadiazol-2-yl)-5-(1H-pyrazol-4-yl)phenol]	7	9	–	–	–	–	–
CN(c1nnc(-c2ccc(-c3ccn(C)c(=O)c3)cc2O)s1)[C@@H]1C[C@H]2CC[C@H](N2)[C@@H]1F (single isomer, unassigned) [Compound E-4A]	–	–	54	1.03	55.9	93	101
CN(c1nnc(-c2ccc(-c3cnn(C)c3)cc2O)s1)[C@H]1C[C@@H]2CC[C@H]([C@H]1F)N2C (racemic) [21A/21B, 2-(5-{[(1S,2S,3R,5R)-2-fluoro-8-methyl-8-azabicyclo[3.2.1]octan-3-yl](methyl)amino}-1,3,4-thiadiazol-2-yl)-5-(1-methyl-1H-pyrazol-4-yl)phenol and 2-(5-{[(1R,2R,3S,5S)-2-fluoro-8-methyl-8-azabicyclo[3.2.1]octan-3-yl](methyl)amino}-1,3,4-thiadiazol-2-yl)-5-(1-methyl-1H-pyrazol-4-yl)phenol]	3	4	–	–	–	–	–
CN(c1nnc(-c2ccc(-c3cnn(C)c3)cc2O)s1)[C@@H]1C[C@H]2CC[C@@H]([C@@H]1F)N2C (single isomer, unassigned) [Compound E-25B]	–	–	3	7.16	22.7	67	83
COc1cc(-c2ccc(-c3nnc(N(C)[C@@H]4C[C@H]5CC[C@H](N5)[C@@H]4F)s3)c(O)c2)ccn1 (single isomer, unassigned) [Compound E-11A]	–	–	2	4.19	9.76	20	56
CN(c1nnc(-c2ccc(-c3ccn(CF)c(=O)c3)cc2O)s1)[C@@H]1C[C@H]2CC[C@H](N2)[C@@H]1F (single isomer, unassigned) [Compound E-15A]	–	–	40	1.39	55.6	82	96
CN(c1nnc(-c2ccc(-c3cn[nH]c3)cc2O)s1)[C@@H]1C[C@H]2CC[C@@H]([C@@H]1F)N2C (single isomer, unassigned) [Compound E-23B]	–	–	7	5.69	39	83	89
CN(c1nnc(-c2ccc(-c3cnn(C)c3)cc2O)s1)[C@H]1C[C@@H]2CC[C@@H](N2)[C@H]1F (racemic) [3A/3B, 2-(5-(((1R,2R,3S,5S)-2-fluoro-8-azabicyclo[3.2.1]octan-3-yl)(methyl)amino)-1,3,4-thiadiazol-2-yl)-5-(1-methyl-1H-pyrazol-4-yl)phenol]	4.3	5.3	–	–	–	–	–
